These results are taken from patent publication US20130123360A1, “METHODS AND USES RELATING TO THE IDENTIFICATION OF COMPOUND ASSOCIATED WITH BACTERIAL INFECTION” (SANOFI-AVENTIS DEUTSCHLAND GMBH, priority 2010, published 2013).

Test [1] has as its target T1, PqsD protein (Pseudomonas aeruginosa, UniProt P20582).
T1 construct: The 1-kb NdeI-EcoRI fragment of pqsD was cloned between the NdeI and EcoRI sites of pET28b(+), resulting in pET28b(+)-pqsD; fused on or other part: N-terminal His tag from pET28b(+)
T1 sequence (P20582 1-337): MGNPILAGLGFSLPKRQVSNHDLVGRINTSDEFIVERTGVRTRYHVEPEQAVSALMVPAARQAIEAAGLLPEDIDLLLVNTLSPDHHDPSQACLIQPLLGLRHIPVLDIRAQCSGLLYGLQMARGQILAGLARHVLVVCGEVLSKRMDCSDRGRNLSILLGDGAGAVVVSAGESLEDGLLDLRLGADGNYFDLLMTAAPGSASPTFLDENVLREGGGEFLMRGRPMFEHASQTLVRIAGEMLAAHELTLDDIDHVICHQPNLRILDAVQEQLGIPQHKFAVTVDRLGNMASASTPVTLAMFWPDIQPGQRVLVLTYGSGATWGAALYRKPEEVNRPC
The experiment in a line: Inhibition of HHQ formation by PqsD in vitro (HPLC-MS2 quantification of HHQ). Format: biochemical, Pseudomonas aeruginosa UCBPP-PA14. To be noted: 0.2 mM anthraniloyl-CoA, 0.35 mM 3-oxodecanoic acid, 1 μg PqsD, 2 min preincubation, 2 min at 37° C., pH 8.0. The method, then:
Experimental protocol. With the PqsD assay established so far, it is possible to screen for possible inhibitors of HHQ formation by PqsD in vitro. For this purpose the concentrations of anthraniloyl-CoA, 3-oxodecanoic acid and PqsD protein are assigned to fixed values. At first PqsD, anthraniloyl-CoA and the compound to be tested are preincubated for a fixed period. The putative inhibitor is added to the assay in increasing concentrations. The reaction is started by the addition of 3-oxodecanoic acid and incubated for a fixed period. Then the reaction is quenched by the addition of methanol to a final concentration of 50 percent. For each reaction the HHQ formation is quantified by HPLC/MS^2. By comparing the amounts of HHQ formed in presence of the different concentrations of the inhibitor to that of a control reaction without inhibitor, it can be calculated for the inhibitor concentration at which HHQ formation is 50 percent of the control reaction (IC50). […]
HHQ quantification by HPLC-MS^2—HPLC-MS analysis was carried out using a HPLC system from the Agilent 1100 series coupled to a Brucker Daltonics HCTultra ESI-MS iontrap instrument operated in positive ionization mode. […] For HHQ quantification the signal intensities of fragment ion 159.0 Da created by fragmentation of 244.0 Da were used. […]

Test [2] concerns the target T1, PqsD protein. Nature of the test: Determination of kinetic parameters of PqsD (HHQ formation, HPLC-MS2). It is filed as biochemical, Pseudomonas aeruginosa UCBPP-PA14. The method, then:
Experimental protocol. […] The carbon-carbon bond formation between carbons 3 and 4 of the quinoline ring is likely to be catalyzed by one of the proteins PqsB, PqsC or PqsD which show all homology to the β-ketoacyl-acyl carrier protein synthase III family. To test of whether PqsD is necessary for HHQ formation, we purified recombinant PqsD protein and tried to readjust HHQ formation in vitro. The heterologous protein was incubated with anthraniloyl-CoA and 3-oxodecanoic acid and the reaction was analyzed by HPLC-MS.
HHQ quantification by HPLC-MS^2—HPLC-MS analysis was carried out using a HPLC system from the Agilent 1100 series coupled to a Brucker Daltonics HCTultra ESI-MS iontrap instrument operated in positive ionization mode. For separation a Onyx Monolythic C18 column (50×2 mm, Phenomenex) was used. […] For HHQ quantification the signal intensities of fragment ion 159.0 Da created by fragmentation of 244.0 Da were used. For creation of the standard curve HHQ standards containing 1, 5, 10, 20, 50, 100 and 200 ng ml^−1 were measured.
The reaction mixtures contained 50 mM Tris-HCl, pH 8.0, PqsD protein (1 μg), 0.2 mM anthraniloyl-CoA and 3-oxodecanoic acid ranging in concentration from 0.02 to 2 mM in a total volume of 50 μl. […] HHQ was quantified by HPLC by injecting 10 μl of the reaction mixture. […]

Values joined by “and” are separate entries in the source; they are usually repeats but may differ in a detail not shown here. Equal values may be shown once. Read-outs that look alike come from different tables or passages of the source.

Take `O=C(Nc1ccccc1C(=O)O)c1ccc(-c2ccccc2)c(Oc2ccccc2)c1` [2-[(2-phenoxybiphenyl-4-carbonyl)amino]benzoic acid]: on PqsD protein [1], the half-maximal inhibitory concentration (IC50) was 35 µM and ~35 µM. Turning to `CCCCCCCC(=O)CC(=O)O` [3-oxodecanoic acid], the Michaelis-Menten constant (Km) on PqsD protein [2] (fixed anthraniloyl-CoA 200 μM, varied 3-oxodecanoic acid 0.02 to 2 mM, 37° C., pH 8.0, triplicates, read-out: Km value of PqsD for 3-oxodecanoic acid) worked out at 562 ± 91 µM; on PqsD protein [2] (fixed anthraniloyl-CoA, varied 3-oxodecanoic acid concentrations, FIG. 4, read-out: Km value of PqsD (figure legend)) it was 560 µM.
